Here are results for eight molecules from PMC4673899 (Analytical biochemistry, 2010).

Like-named read-outs stand apart in the source and are kept apart here. Primed or numbered codes have the meaning given here. Ends that are not written are not given here. Me3 = trimethyl on the lysine side chain; Me3″ = trimethyl (on lysine) Some results are limits rather than exact numbers.

In assay [1] the target is T1, JMJD2E (Homo sapiens, UniProt B2RXH2).
T1 sequence (B2RXH2 1-337): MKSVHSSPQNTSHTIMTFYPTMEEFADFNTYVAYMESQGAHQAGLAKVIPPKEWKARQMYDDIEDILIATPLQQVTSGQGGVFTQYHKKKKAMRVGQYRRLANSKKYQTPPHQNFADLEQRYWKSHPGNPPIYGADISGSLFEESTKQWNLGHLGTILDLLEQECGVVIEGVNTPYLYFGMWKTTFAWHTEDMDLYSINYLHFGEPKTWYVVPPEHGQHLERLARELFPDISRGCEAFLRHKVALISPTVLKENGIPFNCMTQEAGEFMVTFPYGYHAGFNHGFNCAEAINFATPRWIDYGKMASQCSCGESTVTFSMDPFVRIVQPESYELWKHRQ
Particulars: read-out: IC50 (FDH), cited from earlier work.

For assay [2], the target named is T1, JMJD2E. The conditions noted are these: cited from earlier work.
Assay [3] addresses T1, JMJD2E. The assay can be described thus: JMJD2E-peptide binding AlphaScreen assay. A general note: Alpha assays give light when donor and acceptor beads are brought close together.
Assay [4] concerns the target histone H3K9me3 peptide (Homo sapiens) (UniProt P68431). Nature of the assay: SPR. The conditions noted are these: cited from earlier work.
In assay [5] the target is T2, N-terminally His-tagged catalytic domain of recombinant JMJD2E (residues 1-337) (UniProt B2RXH2 1-337).
T2 sequence (looked up): T1 sequence (B2RXH2 1-337)
The assay can be described thus: AlphaScreen or HTRF.

Sequence of JMJD2A (O75164 2-1064): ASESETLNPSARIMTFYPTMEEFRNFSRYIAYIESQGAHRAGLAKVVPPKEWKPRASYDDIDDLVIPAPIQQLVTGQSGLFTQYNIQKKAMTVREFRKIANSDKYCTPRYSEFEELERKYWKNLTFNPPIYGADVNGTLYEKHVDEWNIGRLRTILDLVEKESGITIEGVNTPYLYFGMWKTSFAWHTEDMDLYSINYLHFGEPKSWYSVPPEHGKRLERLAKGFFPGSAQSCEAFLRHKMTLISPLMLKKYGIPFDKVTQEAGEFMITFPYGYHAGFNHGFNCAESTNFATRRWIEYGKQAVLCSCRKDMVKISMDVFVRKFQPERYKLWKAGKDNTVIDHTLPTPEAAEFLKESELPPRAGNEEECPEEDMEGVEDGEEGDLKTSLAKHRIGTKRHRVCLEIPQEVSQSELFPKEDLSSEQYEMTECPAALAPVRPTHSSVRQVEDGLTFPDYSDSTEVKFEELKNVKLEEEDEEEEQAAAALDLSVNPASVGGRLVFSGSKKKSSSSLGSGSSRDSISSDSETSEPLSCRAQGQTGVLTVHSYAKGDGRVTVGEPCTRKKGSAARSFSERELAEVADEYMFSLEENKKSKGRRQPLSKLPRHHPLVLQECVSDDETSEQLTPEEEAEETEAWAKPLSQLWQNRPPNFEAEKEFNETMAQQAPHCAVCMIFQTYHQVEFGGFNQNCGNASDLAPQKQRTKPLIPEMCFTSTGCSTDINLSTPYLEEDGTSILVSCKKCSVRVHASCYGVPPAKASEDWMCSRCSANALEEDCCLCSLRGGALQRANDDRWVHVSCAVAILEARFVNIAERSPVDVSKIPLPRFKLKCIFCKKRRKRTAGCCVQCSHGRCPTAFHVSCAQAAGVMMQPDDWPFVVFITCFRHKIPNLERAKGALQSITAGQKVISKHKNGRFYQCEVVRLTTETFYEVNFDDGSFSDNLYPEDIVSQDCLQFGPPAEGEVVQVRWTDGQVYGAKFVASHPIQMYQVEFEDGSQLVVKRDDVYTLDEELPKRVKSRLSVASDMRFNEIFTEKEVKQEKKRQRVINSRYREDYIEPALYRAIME

Broadly, the IC50 is the concentration needed to halve the response being measured. With `O=C(O)c1cccnc1C(=O)O` [Compound 2, 2,3-PDCA], the IC50 in assay [1] is over 5000 µM.

Usually Km stands for the substrate concentration at which the rate is half of its maximum. Regarding `O=C(O)CCC(=O)C(=O)O` [Compound 2OG, 2-oxoglutarate], the Km in assay [2] was 14 µM. For the same molecule, the “concentration at signal maximum in binding assay” value in assay [3] (JMJD2E pre-incubated with 2OG prior to biotinylated-H3(1-15)K9Me3) was 10 to 30 µM.

`O=C(O)c1ccc(C(=O)O)nc1` [Compound 3, 2,5-PDCA]: the IC50 in assay [1] (listed as 2,5-PDCA (3)) was 180 µM.

As to `O=C(O)c1ccc(C(=O)O)nc1` [Compound 4, 3,6-PDCA], the IC50 in assay [1] (listed as 3,6-PDCA (4)) is over 1000 µM.

As for “H3(6-21)K9Me3: histone H3 residues 6-21 peptide with tri-methyl lysine 9 (TARK(Me3″)STGGKAPRKQLA-NH2)”, in assay [3] (competition of unlabelled peptide with biotin-H3(1-15)K9Me3), the “relative JMJD2E affinity in the binding assay” value is given as “higher JMJD2E affinity than H3(1-15)K9Me3”.

For orientation: Kd means a measure of binding affinity in units of concentration. As for JMJD2A (from UniProt O75164), the Kd in assay [4] is 1 µM.

For the molecule ARTKQTARKSTGGKA (peptide, UniProt P68431 2-16, looked up, trimethyl-lysine at K9; C-terminal amide) [unlabelled H3(1-15)K9Me3 peptide], the IC50 in assay [5] was 1.2 µM.

Regarding TARK(Me3)STGGKAPRKQLA-NH2 (peptide, UniProt P68431 7-22, looked up) [H3(6-21)K9Me3 peptide], in assay [5], the binding result was “binds”.
